Results on two molecules are retold here after ChEMBL document CHEMBL5058643, “Data for DCP probe BI-2081” (2022).

What all share (settings): Compound concentration 10.0 uM
The target in test [1] is Histamine H1 receptor (Homo sapiens) (UniProt P35367).
The target in test [2] is Kappa-type opioid receptor (Homo sapiens) (UniProt P41145).
The target in test [3] is Muscarinic acetylcholine receptor M3 (Homo sapiens, UniProt P20309).
Test [4] concerns the target Cholecystokinin receptor type A (Homo sapiens) (UniProt P32238). Put plainly: CCKA/H Eurofins SafetyScreen44 (BI).
For test [5], the target named is D(1A) dopamine receptor (Homo sapiens) (UniProt P21728).
D(1A) dopamine receptor (Homo sapiens), sequence (P21728 whole entry): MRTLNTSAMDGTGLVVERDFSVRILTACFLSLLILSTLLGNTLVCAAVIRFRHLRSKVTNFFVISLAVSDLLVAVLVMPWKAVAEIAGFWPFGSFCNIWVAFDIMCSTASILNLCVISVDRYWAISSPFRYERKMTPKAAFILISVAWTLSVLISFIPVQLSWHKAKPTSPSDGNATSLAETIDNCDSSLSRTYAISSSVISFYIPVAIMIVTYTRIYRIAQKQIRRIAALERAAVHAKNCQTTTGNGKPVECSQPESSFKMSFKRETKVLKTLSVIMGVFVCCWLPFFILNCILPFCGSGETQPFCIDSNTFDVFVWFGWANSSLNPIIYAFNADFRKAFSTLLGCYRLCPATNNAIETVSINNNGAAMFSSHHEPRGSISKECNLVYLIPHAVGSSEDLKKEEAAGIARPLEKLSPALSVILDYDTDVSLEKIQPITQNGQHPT
In test [6] the target is 5-hydroxytryptamine receptor 7 (Homo sapiens) (UniProt P34969).
The target in test [7] is 5-hydroxytryptamine receptor 2A (Homo sapiens) (UniProt P28223).
5-hydroxytryptamine receptor 2A (Homo sapiens), sequence (P28223 whole entry): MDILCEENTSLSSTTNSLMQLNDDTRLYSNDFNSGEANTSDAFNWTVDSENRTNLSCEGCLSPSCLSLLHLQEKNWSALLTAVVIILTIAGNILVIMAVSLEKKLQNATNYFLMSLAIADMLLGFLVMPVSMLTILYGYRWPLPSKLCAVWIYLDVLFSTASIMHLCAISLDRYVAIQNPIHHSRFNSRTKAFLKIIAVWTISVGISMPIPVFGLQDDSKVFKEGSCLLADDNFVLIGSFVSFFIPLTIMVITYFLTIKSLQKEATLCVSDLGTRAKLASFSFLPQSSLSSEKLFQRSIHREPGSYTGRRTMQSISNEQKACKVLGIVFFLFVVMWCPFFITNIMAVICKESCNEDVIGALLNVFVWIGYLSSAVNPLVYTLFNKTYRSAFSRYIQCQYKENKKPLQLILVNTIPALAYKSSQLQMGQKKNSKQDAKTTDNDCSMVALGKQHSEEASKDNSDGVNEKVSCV
In test [8] the target is 5-hydroxytryptamine receptor 6 (Homo sapiens) (UniProt P50406).
5-hydroxytryptamine receptor 6 (Homo sapiens), sequence (P50406 whole entry): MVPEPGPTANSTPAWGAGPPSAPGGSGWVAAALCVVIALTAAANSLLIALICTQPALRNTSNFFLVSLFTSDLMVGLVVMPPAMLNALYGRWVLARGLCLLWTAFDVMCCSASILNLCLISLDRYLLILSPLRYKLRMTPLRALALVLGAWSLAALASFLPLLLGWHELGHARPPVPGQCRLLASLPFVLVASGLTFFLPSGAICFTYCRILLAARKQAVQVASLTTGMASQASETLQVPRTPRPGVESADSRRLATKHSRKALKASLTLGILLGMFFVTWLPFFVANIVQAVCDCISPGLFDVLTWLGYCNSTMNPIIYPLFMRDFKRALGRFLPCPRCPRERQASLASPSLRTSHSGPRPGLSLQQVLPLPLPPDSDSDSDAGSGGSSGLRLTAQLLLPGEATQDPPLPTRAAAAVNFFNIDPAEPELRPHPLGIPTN
Test [9] addresses 5-hydroxytryptamine receptor 1B (Homo sapiens) (UniProt P28222).
The target in test [10] is T1, Alpha-2C adrenergic receptor (Homo sapiens) (UniProt P18825).
T1 sequence (whole entry): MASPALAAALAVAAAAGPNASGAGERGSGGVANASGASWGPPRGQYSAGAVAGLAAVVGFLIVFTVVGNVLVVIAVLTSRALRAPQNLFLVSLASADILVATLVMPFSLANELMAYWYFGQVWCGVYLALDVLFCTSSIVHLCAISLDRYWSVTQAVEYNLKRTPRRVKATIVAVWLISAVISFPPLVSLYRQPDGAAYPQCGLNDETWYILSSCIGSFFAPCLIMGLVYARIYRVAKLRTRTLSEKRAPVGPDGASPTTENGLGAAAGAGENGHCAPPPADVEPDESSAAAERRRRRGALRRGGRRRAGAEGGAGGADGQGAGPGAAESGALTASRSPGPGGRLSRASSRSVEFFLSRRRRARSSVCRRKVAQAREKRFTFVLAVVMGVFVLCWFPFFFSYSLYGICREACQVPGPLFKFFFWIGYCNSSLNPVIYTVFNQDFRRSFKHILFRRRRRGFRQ

Test [11] has as its target T2, 5-hydroxytryptamine receptor 3A (Homo sapiens) (UniProt P46098).
T2 sequence (whole entry): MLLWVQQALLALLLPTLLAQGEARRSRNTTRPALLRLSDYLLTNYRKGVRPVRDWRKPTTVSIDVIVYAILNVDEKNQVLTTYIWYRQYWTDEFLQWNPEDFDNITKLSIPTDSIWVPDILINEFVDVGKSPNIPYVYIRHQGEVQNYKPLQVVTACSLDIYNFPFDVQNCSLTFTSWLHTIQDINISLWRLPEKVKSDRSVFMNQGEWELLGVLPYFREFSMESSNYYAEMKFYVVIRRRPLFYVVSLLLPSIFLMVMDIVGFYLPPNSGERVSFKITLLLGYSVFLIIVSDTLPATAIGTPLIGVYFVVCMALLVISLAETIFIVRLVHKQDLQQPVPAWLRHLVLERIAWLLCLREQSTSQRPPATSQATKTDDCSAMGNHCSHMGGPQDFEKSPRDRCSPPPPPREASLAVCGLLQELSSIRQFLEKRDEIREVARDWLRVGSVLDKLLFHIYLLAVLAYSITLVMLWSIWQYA

Test [12] deals with D(1B) dopamine receptor (Homo sapiens) (UniProt P21918).
D(1B) dopamine receptor (Homo sapiens), sequence (P21918 whole entry): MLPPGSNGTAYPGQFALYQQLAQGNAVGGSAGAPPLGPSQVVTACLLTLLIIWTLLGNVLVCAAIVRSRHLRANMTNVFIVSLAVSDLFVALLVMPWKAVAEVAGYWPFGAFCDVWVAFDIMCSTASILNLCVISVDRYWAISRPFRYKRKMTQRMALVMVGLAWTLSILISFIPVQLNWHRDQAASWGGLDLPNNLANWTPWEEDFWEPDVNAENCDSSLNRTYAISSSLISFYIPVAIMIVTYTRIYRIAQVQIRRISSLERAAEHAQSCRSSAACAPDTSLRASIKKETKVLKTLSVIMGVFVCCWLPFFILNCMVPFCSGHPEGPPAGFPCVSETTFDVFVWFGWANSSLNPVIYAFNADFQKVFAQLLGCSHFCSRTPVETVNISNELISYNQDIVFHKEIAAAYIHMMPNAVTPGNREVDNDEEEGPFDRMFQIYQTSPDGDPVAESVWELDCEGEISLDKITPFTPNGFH
Test [13] addresses T3, 5-hydroxytryptamine receptor 1A (Homo sapiens) (UniProt P08908).
T3 sequence (whole entry): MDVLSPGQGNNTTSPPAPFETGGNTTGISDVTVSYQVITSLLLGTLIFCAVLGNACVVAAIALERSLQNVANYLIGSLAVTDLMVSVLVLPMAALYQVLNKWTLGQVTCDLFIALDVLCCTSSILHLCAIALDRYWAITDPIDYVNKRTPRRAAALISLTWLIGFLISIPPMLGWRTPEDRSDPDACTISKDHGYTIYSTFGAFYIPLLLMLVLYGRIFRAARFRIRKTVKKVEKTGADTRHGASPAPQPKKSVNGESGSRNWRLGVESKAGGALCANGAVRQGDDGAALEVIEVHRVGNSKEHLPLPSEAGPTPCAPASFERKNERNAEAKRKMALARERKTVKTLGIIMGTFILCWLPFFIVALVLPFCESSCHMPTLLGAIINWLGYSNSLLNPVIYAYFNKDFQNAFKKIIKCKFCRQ

For test [14], the target named is Delta-type opioid receptor (Homo sapiens) (UniProt P41143).
Delta-type opioid receptor (Homo sapiens), sequence (P41143 whole entry): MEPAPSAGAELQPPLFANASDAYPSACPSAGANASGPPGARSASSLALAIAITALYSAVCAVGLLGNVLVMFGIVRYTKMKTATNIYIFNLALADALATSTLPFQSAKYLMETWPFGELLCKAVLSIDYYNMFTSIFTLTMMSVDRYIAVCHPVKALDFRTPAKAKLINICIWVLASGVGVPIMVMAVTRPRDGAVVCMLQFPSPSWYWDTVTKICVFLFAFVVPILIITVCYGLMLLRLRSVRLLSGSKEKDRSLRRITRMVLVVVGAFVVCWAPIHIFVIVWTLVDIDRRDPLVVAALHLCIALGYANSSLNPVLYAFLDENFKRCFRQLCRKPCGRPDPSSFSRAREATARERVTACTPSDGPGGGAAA
Test [15] deals with T4, Muscarinic acetylcholine receptor M2 (Homo sapiens) (UniProt P08172).
T4 sequence (whole entry): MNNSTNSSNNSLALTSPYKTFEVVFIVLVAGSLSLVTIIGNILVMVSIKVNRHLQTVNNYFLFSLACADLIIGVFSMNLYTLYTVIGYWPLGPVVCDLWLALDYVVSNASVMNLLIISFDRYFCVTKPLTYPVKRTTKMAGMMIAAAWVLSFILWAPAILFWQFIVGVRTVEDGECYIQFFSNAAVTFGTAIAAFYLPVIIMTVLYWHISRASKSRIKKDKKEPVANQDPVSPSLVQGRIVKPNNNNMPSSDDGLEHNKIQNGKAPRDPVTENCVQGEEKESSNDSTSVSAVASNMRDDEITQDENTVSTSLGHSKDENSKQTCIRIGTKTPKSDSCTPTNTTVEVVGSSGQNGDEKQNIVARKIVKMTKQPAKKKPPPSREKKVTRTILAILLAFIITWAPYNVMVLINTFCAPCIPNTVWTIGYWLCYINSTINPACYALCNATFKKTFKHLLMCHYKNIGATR

The target in test [16] is D(3) dopamine receptor (Homo sapiens) (UniProt P35462).
D(3) dopamine receptor (Homo sapiens), sequence (P35462 whole entry): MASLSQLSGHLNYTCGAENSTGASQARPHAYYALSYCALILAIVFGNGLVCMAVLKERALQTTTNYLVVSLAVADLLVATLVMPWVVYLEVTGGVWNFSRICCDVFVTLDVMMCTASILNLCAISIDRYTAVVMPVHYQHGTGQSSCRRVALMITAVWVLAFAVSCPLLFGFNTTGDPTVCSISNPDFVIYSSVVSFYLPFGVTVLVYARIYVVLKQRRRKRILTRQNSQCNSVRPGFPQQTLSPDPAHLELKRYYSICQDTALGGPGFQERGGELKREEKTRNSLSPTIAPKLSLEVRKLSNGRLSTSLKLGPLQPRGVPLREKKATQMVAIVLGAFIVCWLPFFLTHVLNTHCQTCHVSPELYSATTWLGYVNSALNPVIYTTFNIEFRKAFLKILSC
The target of test [17] is 5-hydroxytryptamine receptor 5A (Homo sapiens) (UniProt P47898).
5-hydroxytryptamine receptor 5A (Homo sapiens), sequence (P47898 whole entry): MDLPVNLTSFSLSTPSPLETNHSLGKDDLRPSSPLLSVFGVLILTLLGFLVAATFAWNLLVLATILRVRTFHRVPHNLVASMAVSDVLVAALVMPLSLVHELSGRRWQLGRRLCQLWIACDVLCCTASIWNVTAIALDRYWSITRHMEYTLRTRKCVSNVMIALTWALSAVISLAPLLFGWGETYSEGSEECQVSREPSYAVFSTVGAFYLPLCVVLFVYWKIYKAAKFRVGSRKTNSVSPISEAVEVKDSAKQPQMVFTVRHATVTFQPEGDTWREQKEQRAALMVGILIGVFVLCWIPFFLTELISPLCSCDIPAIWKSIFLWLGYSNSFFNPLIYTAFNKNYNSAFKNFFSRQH
The target of test [18] is D(2) dopamine receptor (Homo sapiens) (UniProt P14416).

Molecules are shown by their SMILES.

Kappa-type opioid receptor (Homo sapiens), sequence (P41145 whole entry): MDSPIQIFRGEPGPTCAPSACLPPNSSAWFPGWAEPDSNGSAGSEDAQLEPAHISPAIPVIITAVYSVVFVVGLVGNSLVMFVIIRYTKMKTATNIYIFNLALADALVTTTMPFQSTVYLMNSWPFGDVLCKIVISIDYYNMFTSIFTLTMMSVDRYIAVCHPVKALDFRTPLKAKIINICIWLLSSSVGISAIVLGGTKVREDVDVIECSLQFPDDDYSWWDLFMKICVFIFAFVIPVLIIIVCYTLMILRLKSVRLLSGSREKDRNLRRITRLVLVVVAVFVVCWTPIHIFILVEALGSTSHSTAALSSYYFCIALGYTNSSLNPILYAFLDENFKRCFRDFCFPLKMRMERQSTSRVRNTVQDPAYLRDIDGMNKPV
Histamine H1 receptor (Homo sapiens), sequence (P35367 whole entry): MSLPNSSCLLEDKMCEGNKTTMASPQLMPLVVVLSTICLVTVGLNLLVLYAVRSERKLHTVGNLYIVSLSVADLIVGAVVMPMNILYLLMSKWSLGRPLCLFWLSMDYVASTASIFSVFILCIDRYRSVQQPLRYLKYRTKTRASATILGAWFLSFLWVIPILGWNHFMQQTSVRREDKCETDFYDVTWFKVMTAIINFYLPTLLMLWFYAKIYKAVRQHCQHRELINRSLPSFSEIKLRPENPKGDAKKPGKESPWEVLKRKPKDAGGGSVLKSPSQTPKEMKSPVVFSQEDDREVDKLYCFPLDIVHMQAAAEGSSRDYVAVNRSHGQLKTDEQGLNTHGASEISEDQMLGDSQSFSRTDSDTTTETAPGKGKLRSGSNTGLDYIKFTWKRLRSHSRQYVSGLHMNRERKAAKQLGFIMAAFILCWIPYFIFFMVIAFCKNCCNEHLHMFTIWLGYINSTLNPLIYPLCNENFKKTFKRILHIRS
Muscarinic acetylcholine receptor M3, sequence (P20309 whole entry, looked up): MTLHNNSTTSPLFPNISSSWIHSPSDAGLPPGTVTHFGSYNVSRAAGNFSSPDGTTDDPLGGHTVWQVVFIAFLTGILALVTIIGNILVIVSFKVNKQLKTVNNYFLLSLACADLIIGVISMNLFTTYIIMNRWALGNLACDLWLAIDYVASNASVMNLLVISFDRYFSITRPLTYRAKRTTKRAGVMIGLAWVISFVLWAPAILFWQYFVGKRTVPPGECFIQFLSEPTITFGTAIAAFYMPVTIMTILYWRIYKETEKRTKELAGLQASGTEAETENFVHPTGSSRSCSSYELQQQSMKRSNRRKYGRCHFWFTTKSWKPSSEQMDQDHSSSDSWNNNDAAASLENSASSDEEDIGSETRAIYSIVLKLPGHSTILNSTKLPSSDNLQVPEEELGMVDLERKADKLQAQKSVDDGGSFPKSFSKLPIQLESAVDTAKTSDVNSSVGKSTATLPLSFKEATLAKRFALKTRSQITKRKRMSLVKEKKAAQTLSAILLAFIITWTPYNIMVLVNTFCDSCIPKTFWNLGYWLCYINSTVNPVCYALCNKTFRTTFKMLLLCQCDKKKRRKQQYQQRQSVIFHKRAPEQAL
5-hydroxytryptamine receptor 1B (Homo sapiens), sequence (P28222 whole entry): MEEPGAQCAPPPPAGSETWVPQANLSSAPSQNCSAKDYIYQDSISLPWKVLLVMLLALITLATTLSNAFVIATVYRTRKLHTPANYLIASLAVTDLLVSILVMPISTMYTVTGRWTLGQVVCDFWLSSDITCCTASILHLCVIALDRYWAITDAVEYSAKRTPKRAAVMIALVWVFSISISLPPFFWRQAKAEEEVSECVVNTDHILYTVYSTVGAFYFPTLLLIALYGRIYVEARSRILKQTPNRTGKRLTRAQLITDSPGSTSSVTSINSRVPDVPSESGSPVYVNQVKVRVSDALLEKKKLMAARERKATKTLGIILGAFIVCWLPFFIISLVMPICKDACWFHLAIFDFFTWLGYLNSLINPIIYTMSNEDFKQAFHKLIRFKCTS

By inhibition is commonly meant the change of the read-out against control, counted positive when it falls. What is called residual activity is the signal under treatment as a percentage of the control signal. Regarding `COCCCS(=O)(=O)c1cc(C)c(-c2ccc(F)c3c2CC[C@H]3Oc2ccc3c(c2)OC[C@H]3CC(=O)O)c(C)c1`, the inhibition was -1.92% in test [1]; 20.6% in [2]; -1.57% in test [3]; -9.32% in test [5]; 3.29% in test [6]; -2.26% in test [7]. The inhibition in [8] was -8.04%; in test [9], 5.08%; in test [10] it was 5.58%; in [11], 1.85%; in [12], 13.6%; in [13], 31.1%. Also, the inhibition in test [14] is 20.8%; in test [15] it was -3.61%; in [16], 20.4%; in [17] it was 9.98%; in test [18], 8.15%. In test [4], the residual activity was 82%.
`Cc1cc(OCCC(C)(C)O)cc(C)c1-c1ccc(F)c2c1CC[C@H]2Oc1ccc2c(c1)OC[C@H]2CC(=O)O`: the inhibition in test [1] is 10.3%; in test [2], 8.37%; in test [3], 68.2%; in test [5], 0.05%; in [6], 13%; in test [7], -0.3%. Besides, the inhibition in test [8] is -2.53%; in test [9], 18.6%; in test [10], 14.5%; in [11] it was 9.64%; in [12], 15.1%; in [13] it was 22.6%. Moreover, the inhibition was 24.4% in test [14]; -3.23% in test [15]; -6.42% in test [16]; 5.48% in [17]; 3.28% in [18]. In addition, in test [4], the residual activity is 103%.
